Results reported in patent publication US11116710B2, “Antimicrobial compositions” (SYMRISE AG, priority 2016, dated 2021).
Values after ≈ are worked out from the molar mass of the structure shown.

Columns and labels:
P. aeruginosa = assay: Preservative challenge test (European Pharmacopoeia 7.0, 5.1.3) in anionic emulsion with Dracorin CE; type: cell-based, Pseudomonas aeruginosa; details: pH 5.5
Description: (§1) The invention will be further described in the following on the basis of examples. The examples serve to illustrate the invention, without thereby restricting the scope of protection of the claims. For examples, 1 to 11 preservative challenge tests according to European Pharmacopoeia 7.0 (5.1.3. Efficacy of antimicrobial preservation) were used. For example 12, activities were determined by measuring minimum inhibitory concentrations (MIC values) according to DIN 58940. All numerical information relates to weight, unless stated otherwise.
(§2) Activity of Benzoic acid-3-hydroxypropylester (BAHP) against the microorganisms E. coli, P. aeruginosa, S. aureus, C. albicans and spores of A. brasiliensis was evaluated in an anionic emulsion with Dracorin CE as emulsifier. The pH value of the emulsion was 5.5.
(§3) Activity of Furoic acid-3-hydroxypropylester (FAHP) against the microorganisms E. coli, P. aeruginosa, S. aureus, C. albicans and spores of A. brasiliensis was evaluated in an anionic emulsion with Dracorin CE as emulsifier. The pH value of the emulsion was 5.5.
(§4) Activity of Anisic acid-3-hydroxypropylester (AAHP) against the microorganisms E. coli, P. aeruginosa, S. aureus, C. albicans and spores of A. brasiliensis was evaluated in an anionic emulsion with Dracorin CE as emulsifier. The pH value of the emulsion was 5.5.
as §2, with “Synergistic effects between” for “Activity of”, “(BAHP) and 1,2-Octanediol were determined. Activity of BAHP, 1,2-Octanediol and the combination of BAHP and 1,2-Octanediol” for “(BAHP)”

E. coli = assay: as above; type: cell-based, Escherichia coli; details: pH 5.5
Description: as §1, §2, §3, §4
as §2, with “Synergistic effects between” for “Activity of”, “(BAHP) and 1,2-Octanediol were determined. Activity of BAHP, 1,2-Octanediol and the combination of BAHP and 1,2-Octanediol” for “(BAHP)”

C. albicans = assay: as above; type: cell-based, Candida albicans; details: pH 5.5
Description: as §1, §2, §3, §4
as §2, with “Synergistic effects between” for “Activity of”, “(BAHP) and 1,2-Octanediol were determined. Activity of BAHP, 1,2-Octanediol and the combination of BAHP and 1,2-Octanediol” for “(BAHP)”

S. aureus = assay: as above; type: cell-based, Staphylococcus aureus; details: pH 5.5
Description: as §1, §2, §3, §4
as §2, with “Synergistic effects between” for “Activity of”, “(BAHP) and 1,2-Octanediol were determined. Activity of BAHP, 1,2-Octanediol and the combination of BAHP and 1,2-Octanediol” for “(BAHP)”

Aspergillus brasiliensis = assay: Minimum inhibitory concentration (MIC) according to DIN 58940; type: cell-based; details: for MIC: Aspergillus brasiliensis, read-out: MIC values (ppm) Aspergillus brasiliensis
Description: as §1
(§5) The activity of Benzoic acid-3-hydroxypropylester (BAHP), Furoic acid-3-hydroxypropylester (FAHP) and Anisic acid-3-hydroxypropylester (AAHP), Salicylic acid hydroxyethyl ester (SAHE) and Salicylic acid hydroxypropyl ester (SAHP) was determined against the microorganisms Staphylococcus aureus, Candida albicans, Aspergillus brasiliensis, Pseudomonas aeruginosa and Escherichia coli. The activity of N-Methylsalicylamid (MSA), Furoic acid methylester (FAME) and Salicylamide (SA) was determined against the microorganism Aspergillus brasiliensis.

Escherichia coli = assay: as above; type: cell-based; details: for MIC: Escherichia coli, read-out: MIC values (ppm) Escherichia coli
Description: as §1, §5

Candida albicans = assay: as above; type: cell-based; details: for MIC values (ppm) Candida aibicans: DIN 58940; for MIC: Candida albicans, read-out: MIC values (ppm) Candida aibicans
Description: as §1, §5

Staphylococcus aureus = assay: as above; type: cell-based; details: for MIC: Staphylococcus aureus, read-out: MIC values (ppm) Staphylococcus aureus
Description: as §1, §5

Pseudomonas aeruginosa = assay: as above; type: cell-based; details: for MIC: Pseudomonas aeruginosa, read-out: MIC values (ppm) Pseudomonas aeruginosa
Description: as §1, §5

[1] = test system: spores of A. brasiliensis; assay: Preservative challenge test (European Pharmacopoeia 7.0, 5.1.3) in anionic emulsion with Dracorin CE; type: cell-based, Aspergillus brasiliensis
Description: as §1, §2, §3, §4
Activity of N-Methylsalicylamid (MSA) against the microorganism A. brasiliensis was evaluated in an anionic emulsion with Dracorin CE as emulsifier. The pH value of the emulsion was 5.5.
Activity of Furoic acid methylester (FAME) against the microorganism A. brasiliensis was evaluated in an anionic emulsion with Dracorin CE as emulsifier. The pH value of the emulsion was 5.5.
Activity of Salicylamide (SA) against the microorganism A. brasiliensis was evaluated in an anionic emulsion with Dracorin CE as emulsifier. The pH value of the emulsion was 5.5.
Activity of Salicylic acid hydroxyethyl ester (SAHE) against the microorganism A. brasiliensis was evaluated in an anionic emulsion with Dracorin CE as emulsifier. The pH value of the emulsion was 5.5.
Activity of Salicylic acid hydroxypropyl ester (SAHP) against the microorganism A. brasiliensis was evaluated in an anionic emulsion with Dracorin CE as emulsifier. The pH value of the emulsion was 5.5.
Activity of Benzoic acid-3-hydroxypropylester (BAHP) against spores of A. brasiliensis was evaluated in an anionic emulsion with Dracorin CE as emulsifier. The pH value of the emulsion was 7.
Activity of Anisic acid-3-hydroxypropylester (AAHP) against spores of A. brasiliensis was evaluated in an anionic emulsion with Dracorin CE as emulsifier. The pH value of the emulsion was 7. […]

[2] = day 2, 0.75% in anionic emulsion
[3] = day 7, 0.75% in anionic emulsion
[4] = day 14, 0.75% in anionic emulsion
[5] = day 28, 0.75% in anionic emulsion
[6] = day 2, 1.0% in anionic emulsion
[7] = day 7, 1.0% in anionic emulsion
[8] = day 14, 1.0% in anionic emulsion
[9] = day 28, 1.0% in anionic emulsion
[10] = day 7, 1.0% in anionic emulsion, pH 5.5
[11] = day 14, 1.0% in anionic emulsion, pH 5.5
[12] = day 14, 1.0% in anionic emulsion, pH 7
[13] = day 28, 1.0% in anionic emulsion, pH 5.5
[14] = day 28, 1.0% in anionic emulsion, pH 7

Row | Structure (SMILES) | Colony counts (cfu/g formulation) (P. aeruginosa; [6]) | Colony counts (cfu/g formulation) (P. aeruginosa; [7]) | Colony counts (cfu/g formulation) (P. aeruginosa; [8]) | Colony counts (cfu/g formulation) (P. aeruginosa; [9]) | Colony counts (cfu/g formulation) [1, 11] [cfu/g formulation] | Colony counts (cfu/g formulation) [1, 13] [cfu/g formulation] | Colony counts (cfu/g formulation) (E. coli; [6]) | Colony counts (cfu/g formulation) (E. coli; [7]) | Colony counts (cfu/g formulation) (E. coli; [8]) | Colony counts (cfu/g formulation) (E. coli; [9]) | Colony counts (cfu/g formulation) (C. albicans; [8]) | Colony counts (cfu/g formulation) (C. albicans; [9]) | Colony counts (cfu/g formulation) (S. aureus; [6]) | Colony counts (cfu/g formulation) (S. aureus; [7]) | Colony counts (cfu/g formulation) (S. aureus; [8]) | Colony counts (cfu/g formulation) (S. aureus; [9]) | MIC (Aspergillus brasiliensis) [µg/mL] | MIC (Escherichia coli) [µg/mL] | MIC (Candida albicans) [µg/mL] | MIC (Staphylococcus aureus) [µg/mL] | also measured
1 | CCCCCCC(O)CO (stereo not shown) [1,2-Octanediol, reference compound] |  |  |  |  |  |  |  |  |  |  |  |  |  |  |  |  |  |  |  |  | Colony counts (cfu/g formulation) (P. aeruginosa; [2]): <10 cfu/g formulation; Colony counts (cfu/g formulation) (P. aeruginosa; [3]): <10 cfu/g formulation; Colony counts (cfu/g formulation) (P. aeruginosa; [4]): <10 cfu/g formulation; Colony counts (cfu/g formulation) (P. aeruginosa; [5]): <10 cfu/g formulation; Colony counts (cfu/g formulation) (E. coli; [2]): <10 cfu/g formulation; Colony counts (cfu/g formulation) (E. coli; [3]): <10 cfu/g formulation; Colony counts (cfu/g formulation) (E. coli; [4]): <10 cfu/g formulation; Colony counts (cfu/g formulation) (E. coli; [5]): <10 cfu/g formulation; Colony counts (cfu/g formulation) (C. albicans; [3]): <10 cfu/g formulation; Colony counts (cfu/g formulation) (C. albicans; [4]): <10 cfu/g formulation; Colony counts (cfu/g formulation) (C. albicans; [5]): <10 cfu/g formulation; Colony counts (cfu/g formulation) (S. aureus; [2]): <10 cfu/g formulation; Colony counts (cfu/g formulation) (S. aureus; [3]): <10 cfu/g formulation; Colony counts (cfu/g formulation) (S. aureus; [4]): <10 cfu/g formulation; Colony counts (cfu/g formulation) (S. aureus; [5]): <10 cfu/g formulation
2 | COc1ccc(C(=O)OCCCO)cc1 [AAHP, Anisic acid-3-hydroxypropylester] | <10 | <10 | <10 | <10 | <10 | <10 | <10 | <10 | <10 | <10 | <10 | <10 | <10 | <10 | <10 | <10 |  |  |  |  | MIC values (ppm) Aspergillus brasiliensis (Aspergillus brasiliensis): 1000 ppm; MIC values (ppm) Escherichia coli (Escherichia coli): 2500 ppm; MIC values (ppm) Candida aibicans (Candida albicans): 2500 ppm; MIC values (ppm) Staphylococcus aureus (Staphylococcus aureus): 5000 ppm; MIC values (ppm) Pseudomonas aeruginosa (Pseudomonas aeruginosa): >5000 ppm; Colony counts (cfu/g formulation) [1, 10]: <10 cfu/g formulation; Colony counts (cfu/g formulation) ([1]; day 7, 1.0% in anionic emulsion, pH 7): <10 cfu/g formulation; Colony counts (cfu/g formulation) [1, 12]: <10 cfu/g formulation; Colony counts (cfu/g formulation) [1, 14]: <10 cfu/g formulation; Colony counts (cfu/g formulation) (C. albicans; [6]): <10 cfu/g formulation; Colony counts (cfu/g formulation) (C. albicans; [7]): <10 cfu/g formulation
3 | O=C(OCCCO)c1ccccc1 [BAHP, Benzoic acid-3-hydroxypropylester] | <10 | <10 | <10 | <10 | <10 | <10 | <10 | <10 | <10 | <10 | <10 | <10 | <10 | <10 | <10 | <10 | 2500 (≈ 13.9 mM) | 2000 (≈ 11.1 mM) | 2500 (≈ 13.9 mM) | 5000 (≈ 27.7 mM) | Colony counts (cfu/g formulation) (P. aeruginosa; [2]): <10 cfu/g formulation; Colony counts (cfu/g formulation) (P. aeruginosa; [3]): <10 cfu/g formulation; Colony counts (cfu/g formulation) (P. aeruginosa; [4]): <10 cfu/g formulation; Colony counts (cfu/g formulation) (P. aeruginosa; [5]): <10 cfu/g formulation; MIC (Pseudomonas aeruginosa): > 5000 µg/mL; Colony counts (cfu/g formulation) [1, 12]: <10 cfu/g formulation; Colony counts (cfu/g formulation) [1, 14]: <10 cfu/g formulation; Colony counts (cfu/g formulation) (E. coli; [2]): <10 cfu/g formulation; Colony counts (cfu/g formulation) (E. coli; [3]): <10 cfu/g formulation; Colony counts (cfu/g formulation) (E. coli; [4]): <10 cfu/g formulation; Colony counts (cfu/g formulation) (E. coli; [5]): <10 cfu/g formulation; Colony counts (cfu/g formulation) (C. albicans; [3]): <10 cfu/g formulation; Colony counts (cfu/g formulation) (C. albicans; [7]): <10 cfu/g formulation; Colony counts (cfu/g formulation) (C. albicans; [4]): <10 cfu/g formulation; Colony counts (cfu/g formulation) (C. albicans; [5]): <10 cfu/g formulation; Colony counts (cfu/g formulation) (S. aureus; [3]): <10 cfu/g formulation; Colony counts (cfu/g formulation) (S. aureus; [4]): <10 cfu/g formulation; Colony counts (cfu/g formulation) (S. aureus; [5]): <10 cfu/g formulation
4 | O=C(OCCCO)c1ccco1 [FAHP, Furoic acid-3-hydroxypropylester] | <10 | <10 | <10 | <10 |  |  | <10 | <10 | <10 | <10 | <10 | <10 | <10 | <10 | <10 | <10 |  |  |  |  | MIC values (ppm) Aspergillus brasiliensis (Aspergillus brasiliensis): 5000 ppm; MIC values (ppm) Escherichia coli (Escherichia coli): >5000 ppm; MIC values (ppm) Candida aibicans (Candida albicans): >5000 ppm; MIC values (ppm) Staphylococcus aureus (Staphylococcus aureus): >5000 ppm; MIC values (ppm) Pseudomonas aeruginosa (Pseudomonas aeruginosa): >5000 ppm
5 | COC(=O)c1ccco1 [FAME, Furoic acid methylester] |  |  |  |  |  | <10 |  |  |  |  |  |  |  |  |  |  | > 1000 |  |  |  | 
6 | CNC(=O)c1ccccc1O [MSA, N-Methylsalicylamid] |  |  |  |  | <10 | <10 |  |  |  |  |  |  |  |  |  |  | 1000 (≈ 6.62 mM) |  |  |  | Colony counts (cfu/g formulation) [1, 10]: <10 cfu/g formulation
7 | NC(=O)c1ccccc1O [SA, Salicylamide] |  |  |  |  | 2.0E+03 | <10 |  |  |  |  |  |  |  |  |  |  | 2500 (≈ 18.2 mM) |  |  |  | 
8 | O=C(OCCO)c1ccccc1O [SAHE, Salicylic acid hydroxyethyl ester] |  |  |  |  |  |  |  |  |  |  |  |  |  |  |  |  | 2500 (≈ 13.7 mM) | 2000 (≈ 11 mM) | 2500 (≈ 13.7 mM) | > 1000 | MIC (Pseudomonas aeruginosa): > 1000 µg/mL
9 | O=C(OCCCO)c1ccccc1O [SAHP, Salicylic acid hydroxypropyl ester] |  |  |  |  |  |  |  |  |  |  |  |  |  |  |  |  | 1000 (≈ 5.1 mM) | 2500 (≈ 12.7 mM) | 2500 (≈ 12.7 mM) | 1000 (≈ 5.1 mM) | MIC (Pseudomonas aeruginosa): > 1000 µg/mL
